Reference: patent US7691855B2, “Phenyl-[4-(3-phenyl-1h-pyrazol-4-yl)-pyrimidin-2-yl)-amine derivatives” (Novartis AG, priority 2002, dated 2010)

melting point | Compound
247 °C | CCN1CCN(Cc2ccc(Nc3nccc(-c4c[nH]nc4-c4ccc(Cl)cc4)n3)cc2)CC1 [Example 114, {4-[3-(4-Chloro-phenyl)-1H-pyrazol-4yl]-pyrimidin-2-yl}-[4-(4-ethyl-piperazin-1-ylmethyl)-phenyl]-amine]
123 °C | Cc1ccc(-c2c(-c3ccnc(Nc4ccc(CN5CCN(C)CC5)cc4)n3)cnn2CCN(C)C)cc1 [Example 82, {4-[1-(2-Dimethylamino-ethyl)-5-p-tolyl-1H-pyrazol-4-yl]-pyrimidin-2-yl}-[4-(4 methyl-piperazin-1-ylmethyl)-phenyl]-amine]
164 °C | CN1CCC(n2cc(-c3ccnc(Nc4ccc(CN5CCN(C)CC5)cc4)n3)c(-c3ccc(Cl)cc3)n2)CC1 [Example 80, {4-[3-(4-Chloro-phenyl)-1-(1-methyl-piperidin-4-yl)-1H-pyrazol-4yl]-pyrimidin-2-yl}-[4-(4-methyl-piperazin-1-yl-methyl)-phenyl]-amine]
180 °C | COc1cccc(Nc2nccc(-c3cnn(CC4CCN(C)CC4)c3-c3ccc(Cl)cc3)n2)c1 [Example 108, {4-[5-(4-Chloro-phenyl)-1-(1-methyl-piperidin-4-ylmethyl)-1H-pyrazol-4-yl]-pyrimidin-2-yl}-(3-methoxy-phenyl)-amine]
221 °C | CN1CCN(Cc2ccc(Nc3nccc(-c4c[nH]nc4-c4cccc(C(F)(F)F)c4)n3)cc2)CC1 [Example 110, [4-(4-Methyl-piperazin-1-ylmethyl)-phenyl]-{4-[3-(3-trifluoromethyl-phenyl)-1H-pyrazol-4yl]-pyrimidin-2-yl}-amine]
261 °C | COc1cccc(Nc2nccc(-c3c[nH]nc3-c3ccc(Cl)cc3)n2)c1 [Example 69, {4-[3-(4-Chloro-phenyl)-1H-pyrazol-4-yl]-pyrimidin-2-yl}-(3-methoxy-phenyl)-amine]
249 °C | COc1cc(Nc2nccc(-c3c[nH]nc3-c3cccc(C)c3C)n2)cc(OC)c1OC [Example 51, {4-[3-(2,3-Dimethyl-phenyl)-1H-pyrazol-4-yl]-pyrimidin-2-yl}-(3,4,5-trimethoxy-phenyl)-amine]
153 °C | COc1cc(Nc2nccc(-c3cnn(CCN(C)C)c3-c3ccc(Cl)cc3)n2)cc(OC)c1OC [Example 71, {4-[5-(4-Chloro-phenyl)-1-(2-dimethylamino-ethyl)-1H-pyrazol-4-yl]-pyrimidin-2-yl}-(3,4,5-trimethoxy-phenyl)-amine]
118 °C | COc1cccc(Nc2nccc(-c3cnn(CCN(C)C)c3-c3ccc(Cl)cc3)n2)c1 [Example 75, {-4-[5-(4Chloro-phenyl)-1-(2-dimethylamino-ethyl)-1H-pyrazol-4-yl]-pyrimidin-2-yl}-(3-methoxy-phenyl)-amine]
187 °C | Cc1ccc(-c2c(-c3ccnc(Nc4ccc(CN5CCN(C)CC5)cc4)n3)cnn2C2CCN(C)CC2)cc1 [Example 84, [4-(4-Methyl-piperazin-1-ylmethyl)-phenyl]-{4-[1-(1-methyl-piperidin-4-yl)-5-p-tolyl-1H-pyrazol-4-yl]-pyrimidin-2-yl}-amine]
157 °C | COc1ccc(Nc2nccc(-c3cnn(C)c3-c3ccc(Cl)cc3Cl)n2)cc1OC [Example 56, {4-[5-(2,4-Dichloro-phenyl)-1-methyl-1H-pyrazol-4-yl]-pyrimidin-2-yl}-(3,4-dimethoxy-phenyl)-amine]
268 °C | CCN1CCN(c2ccc(Nc3nccc(-c4c[nH]nc4-c4ccc(Cl)cc4)n3)cc2)CC1 [Example 121, {4-[3-(4-Chloro-phenyl)-1H-pyrazol-4yl]-pyrimidin-2-yl}-[4-(4-ethyl-piperazin-1-yl)-phenyl]-amine]
271 °C | COc1cc(Nc2nccc(-c3c[nH]nc3-c3ccc(Cl)cc3)n2)cc(OC)c1OC [Example 67, {4-[3-(4-Chloro-phenyl)-1H-pyrazol-4-yl]-pyrimidin-2-yl}-(3,4,5-trimethoxy-phenyl)-amine]
166 °C | CN1CCN(Cc2ccc(Nc3nccc(-c4cn(C)nc4-c4ccc(Cl)cc4)n3)cc2)CC1 [Example 78, {4-[3-(4-Chloro-phenyl)-1-methyl-1H-pyrazol-4yl]-pyrimidin-2-yl}-[4-(4-methyl-piperazin-1-ylmethyl)-phenyl]-amine]
310 °C | CN1CCN(c2ccc(Nc3nccc(-c4c[nH]nc4-c4ccccc4Cl)n3)cc2)CC1 [Example 52, {4-[3-(2-Chloro-phenyl)-1H-pyrazol-4-yl]-pyrimidin-2-yl}-[4-(4-methyl-piperazin-1-yl)-phenyl]-amine]
157 °C | COc1ccc(Nc2nccc(-c3cnn(CCN(C)C)c3-c3ccc(Cl)cc3)n2)cc1OC [Example 73, {4-[5-(4-Chloro-phenyl)-1-(2-dimethylamino-ethyl)-1H-pyrazol-4-yl]-pyrimidin-2-yl}-(3,4-dimethoxy-phenyl)-amine]
150 °C | COc1cc(Nc2nccc(-c3cn(CCN(C)C)nc3-c3ccc(Cl)cc3)n2)cc(OC)c1OC [Example 70, {4-[3-(4-Chloro-phenyl)-1-(2-dimethylamino-ethyl)-1H-pyrazol-4-yl]-pyrimidin-2-yl}-(3,4,5-trimethoxy-phenyl)-amine]
180 °C | CN1CCC(n2ncc(-c3ccnc(Nc4ccc(CN5CCN(C)CC5)cc4)n3)c2-c2ccc(Cl)cc2)CC1 [Example 81, {4-[5-(4-Chloro-phenyl)-1-(1-methyl-piperidin-4yl)-1H-pyrazol-4yl]-pyrimidin-2-yl}-[4-(4methyl-piperazin-1-ylmethyl)-phenyl]-amine]
261 °C | COc1ccc(Nc2nccc(-c3c[nH]nc3-c3ccc(Cl)cc3)n2)cc1OC [Example 68, {4-[3-(4-Chloro-phenyl)-1H-pyrazol-4yl]-pyrimidin-2-yl}-(3,4-dimethoxy-phenyl)-amine]
180 °C | COc1ccc(Nc2nccc(-c3cn(C)nc3-c3ccc(Cl)cc3Cl)n2)cc1OC [Example 57, {4-[3-(2,4Dichloro-phenyl)-1-methyl-1H-pyrazol-4-yl]-pyrimidin-2-yl}-(3,4-dimethoxy-phenyl)-amine]
174 °C | Cc1ccc(-c2nn(CCN(C)C)cc2-c2ccnc(Nc3ccc(N4CCN(C)CC4)cc3)n2)cc1 [Example 55, {4-[1-(2-Dimethylamino-ethyl)-3-p-tolyl-1H-pyrazol-4-yl]-pyrimidin-2-yl}-[4-(4-methyl-piperazin-1-yl)-phenyl]-amine]
62 °C | Cc1ccc(-c2nn(CCN(C)C)cc2-c2ccnc(Nc3ccc(CN4CCN(C)CC4)cc3)n2)cc1 [Example 83, {4-[1-(2-Dimethylamino-ethyl)-3-p-tolyl-1H-pyrazol-4-yl]-pyrimidin-2-yl}-[4-(4-methyl-piperazin-1-ylmethyl)-phenyl]-amine]
65 °C | COc1cccc(Nc2nccc(-c3cn(CC4CCN(C)CC4)nc3-c3ccc(Cl)cc3)n2)c1 [Example 107, {4-[3-(4-Chloro-phenyl)-1-(1methyl-piperidin-4-ylmethyl)-1H-pyrazol-4-yl]-pyrimidin-2-yl}-(3-methoxy-phenyl)-amine]
341 °C | Cc1ccc(-c2n[nH]cc2-c2ccnc(Nc3ccc(C(=O)O)cc3)n2)cc1 [Example 58, 4-[4-(3-p-Tolyl-1H-pyrazol-4-yl)-pyrimidin-2-ylamino]-benzoic acid]
